Experiments:
P12-Ichikawa [1] = assay: cell viability relative to DMSO control; higher = less cytotoxic; details: HPLM + 10% dialyzed FBS, 48 h
Outline: (§1)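 Viability is expressed as a percentage of DMSO wells within each plate, and cell-free wells serve as background. Seeding densities in the 1536-well plates (5 μl) were 500 cells/well for NOMO1 or SEM leukemia cells and 1000 cells/well for P12-Ichikawa. Each line was adapted for at least four passages in each medium. Library compounds in DMSO were pin-dosed at 47 μM to 0.79 nM (11 points, threefold), and CellTiter-Glo One luminescence was read after 48 h at 37°C.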

SEM cells [2] = assay: as above; details: 48 h
Outline: as §1

NOMO1 = assay: AUC of viability dose-response curve (% viability x log10 dose units); higher = less sensitive; details: 48 h
Outline: (§2)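 Medium-adapted leukemia cells in 1536-well plates, at 500 or 1000 cells/well, were incubated for 48 h at 37°C with library compounds in DMSO at 11 threefold doses from 47 μM to 0.79 nM. CellTiter-Glo One luminescence normalised per plate to DMSO and cell-free wells was fitted with a four-parameter log-logistic model over log10 doses. Area under the curve was integrated from this fit by trapezoidal rule, with curves beyond full viability scaled and failed quality-control curves removed.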

P12-Ichikawa [3] = assay: as above; details: 48 h
Outline: as §2

SEM cells [4] = assay: as above; details: 48 h
Outline: as §2

[5] = HPLM + 10% dialyzed FBS, 0.000781 µM
[6] = HPLM + 10% dialyzed FBS, 0.00234 µM
[7] = HPLM + 10% dialyzed FBS, 0.00702 µM
[8] = HPLM + 10% dialyzed FBS, 0.0211 µM
[9] = HPLM + 10% dialyzed FBS, 0.0632 µM
[10] = HPLM + 10% dialyzed FBS, 0.19 µM
[11] = HPLM + 10% dialyzed FBS, 0.569 µM
[12] = HPLM + 10% dialyzed FBS, 1.71 µM
[13] = HPLM + 10% dialyzed FBS, 5.12 µM
[14] = HPLM + 10% dialyzed FBS, 15.4 µM
[15] = HPLM + 10% dialyzed FBS, 46.1 µM
[16] = RPMI 5 mM glucose + 10% dialyzed FBS

Work on `N#C/C(=C(/N)Sc1ccc(N)cc1)c1ccccc1C(F)(F)F` yielded a cell viability (P12-Ichikawa [1]; 0.000781 µM) of 123%, a cell viability (P12-Ichikawa [1]; 0.00234 µM) of 121% and a cell viability (P12-Ichikawa [1]; 0.00702 µM) of 125%. For the same compound, the cell viability (P12-Ichikawa [1]; 0.0211 µM) was 125%, the cell viability (P12-Ichikawa [1]; 0.0632 µM) was 133% and the cell viability (P12-Ichikawa [1]; 0.19 µM) was 118%. For the same compound, the cell viability (P12-Ichikawa [1]; 0.569 µM) was 120%, the cell viability (P12-Ichikawa [1]; 1.71 µM) was 103% and the cell viability (P12-Ichikawa [1]; 5.12 µM) was 94.4%. It also gave a cell viability (P12-Ichikawa [1]; 15.4 µM) of 94.1%, a cell viability (P12-Ichikawa [1]; 46.1 µM) of 83.9% and a cell viability (SEM cells [2]; [5]) of 91.1%. It also gave a cell viability (SEM cells [2]; [6]) of 141%, a cell viability (SEM cells [2]; [7]) of 124% and a cell viability (SEM cells [2]; [8]) of 129%. It also gave a cell viability (SEM cells [2]; [9]) of 129%, a cell viability (SEM cells [2]; [10]) of 124% and a cell viability (SEM cells [2]; [11]) of 126%. For the same compound, the cell viability (SEM cells [2]; [12]) was 110%, the cell viability (SEM cells [2]; [13]) was 85.4% and the cell viability (SEM cells [2]; [14]) was 82.3%. For the same compound, the cell viability (SEM cells [2]; [15]) was 64.6%, the “AUC of viability dose-response curve” value (NOMO1; HPLM + 10% dialyzed FBS) was 354 and the “AUC of viability dose-response curve” value (NOMO1; RPMI 5 mM glucose + 10% FBS) was 386. The “AUC of viability dose-response curve” value (NOMO1; [16]) was 366, the “AUC of viability dose-response curve” value (P12-Ichikawa [3]; HPLM + 10% dialyzed FBS) was 433 and the “AUC of viability dose-response curve” value (P12-Ichikawa [3]; RPMI 5 mM glucose + 10% FBS) was 417. For the same compound, the “AUC of viability dose-response curve” value (P12-Ichikawa [3]; [16]) was 436, the “AUC of viability dose-response curve” value (SEM cells [4]; HPLM + 10% dialyzed FBS) was 428 and the “AUC of viability dose-response curve” value (SEM cells [4]; RPMI 5 mM glucose + 10% FBS) was 424. The “AUC of viability dose-response curve” value (SEM cells [4]; [16]) was 404.

With `OC1=CC2=C(C(=C1)O)C(=O)\C(=C(/O2)C3=CC(=C(O)C(=C3)O)O)O` the “AUC of viability dose-response curve” value (NOMO1; HPLM + 10% dialyzed FBS) was 451, the “AUC of viability dose-response curve” value (NOMO1; RPMI 5 mM glucose + 10% FBS) was 470 and the “AUC of viability dose-response curve” value (NOMO1; [16]) was 458. For the same compound, the “AUC of viability dose-response curve” value (P12-Ichikawa [3]; HPLM + 10% dialyzed FBS) was 454, the “AUC of viability dose-response curve” value (P12-Ichikawa [3]; RPMI 5 mM glucose + 10% FBS) was 471 and the “AUC of viability dose-response curve” value (P12-Ichikawa [3]; [16]) was 466. The “AUC of viability dose-response curve” value (SEM cells [4]; HPLM + 10% dialyzed FBS) was 462, the “AUC of viability dose-response curve” value (SEM cells [4]; RPMI 5 mM glucose + 10% FBS) was 460 and the “AUC of viability dose-response curve” value (SEM cells [4]; [16]) was 470.

`CC1(COc2ccc3c(c2)ncn3-c2ccc3cccc(N4CCC(N)CC4)c3n2)COC1` gave a cell viability (SEM cells [2]; [5]) of 91.2%, a cell viability (SEM cells [2]; [6]) of 96.7% and a cell viability (SEM cells [2]; [7]) of 81.3%. It also gave a cell viability (SEM cells [2]; [8]) of 62.7%, a cell viability (SEM cells [2]; [9]) of 38.9% and a cell viability (SEM cells [2]; [10]) of 56.3%. The cell viability (SEM cells [2]; [11]) was 54.4%, the cell viability (SEM cells [2]; [12]) was 44.1% and the cell viability (SEM cells [2]; [13]) was 26.4%. For the same compound, the cell viability (SEM cells [2]; [14]) was 28.7%, the cell viability (SEM cells [2]; [15]) was 6.33% and the cell viability (SEM cells [2]; RPMI 5 mM glucose + 10% FBS, 0.000781 µM) was 114%. It also gave a cell viability (SEM cells [2]; RPMI 5 mM glucose + 10% FBS, 0.00234 µM) of 101%, a cell viability (SEM cells [2]; RPMI 5 mM glucose + 10% FBS, 0.00702 µM) of 94% and a cell viability (SEM cells [2]; RPMI 5 mM glucose + 10% FBS, 0.0211 µM) of 64.9%. The cell viability (SEM cells [2]; RPMI 5 mM glucose + 10% FBS, 0.0632 µM) was 28.8%, the cell viability (SEM cells [2]; RPMI 5 mM glucose + 10% FBS, 0.19 µM) was 49.8% and the cell viability (SEM cells [2]; RPMI 5 mM glucose + 10% FBS, 0.569 µM) was 49.5%. The cell viability (SEM cells [2]; RPMI 5 mM glucose + 10% FBS, 1.71 µM) was 40.5%, the cell viability (SEM cells [2]; RPMI 5 mM glucose + 10% FBS, 5.12 µM) was 18.1% and the cell viability (SEM cells [2]; RPMI 5 mM glucose + 10% FBS, 15.4 µM) was 16.4%. For the same compound, the cell viability (SEM cells [2]; RPMI 5 mM glucose + 10% FBS, 46.1 µM) was 5.26%, the cell viability (SEM cells [2]; RPMI 5 mM glucose + 10% dialyzed FBS, 0.000781 µM) was 99.8% and the cell viability (SEM cells [2]; RPMI 5 mM glucose + 10% dialyzed FBS, 0.00234 µM) was 99.7%. The cell viability (SEM cells [2]; RPMI 5 mM glucose + 10% dialyzed FBS, 0.00702 µM) was 73.6%, the cell viability (SEM cells [2]; RPMI 5 mM glucose + 10% dialyzed FBS, 0.0211 µM) was 59.6% and the cell viability (SEM cells [2]; RPMI 5 mM glucose + 10% dialyzed FBS, 0.0632 µM) was 33.8%. The cell viability (SEM cells [2]; RPMI 5 mM glucose + 10% dialyzed FBS, 0.19 µM) was 51.1%, the cell viability (SEM cells [2]; RPMI 5 mM glucose + 10% dialyzed FBS, 0.569 µM) was 47.4% and the cell viability (SEM cells [2]; RPMI 5 mM glucose + 10% dialyzed FBS, 1.71 µM) was 48.2%. For the same compound, the cell viability (SEM cells [2]; RPMI 5 mM glucose + 10% dialyzed FBS, 5.12 µM) was 20%, the cell viability (SEM cells [2]; RPMI 5 mM glucose + 10% dialyzed FBS, 15.4 µM) was 20.2% and the cell viability (SEM cells [2]; RPMI 5 mM glucose + 10% dialyzed FBS, 46.1 µM) was 6.44%. For the same compound, the “AUC of viability dose-response curve” value (P12-Ichikawa [3]; HPLM + 10% dialyzed FBS) was 392, the “AUC of viability dose-response curve” value (P12-Ichikawa [3]; RPMI 5 mM glucose + 10% FBS) was 403 and the “AUC of viability dose-response curve” value (P12-Ichikawa [3]; [16]) was 418. For the same compound, the “AUC of viability dose-response curve” value (SEM cells [4]; HPLM + 10% dialyzed FBS) was 254, the “AUC of viability dose-response curve” value (SEM cells [4]; RPMI 5 mM glucose + 10% FBS) was 216 and the “AUC of viability dose-response curve” value (SEM cells [4]; [16]) was 240.

With `C[C@@H]1C(=O)O[C@H]2CC34[C@H]5C[C@@H](C(C)(C)C)C36[C@@H](OC(=O)[C@@H]6O)O[C@@]4(C(=O)O5)[C@]21O` (stereo partly specified) the “AUC of viability dose-response curve” value (NOMO1; HPLM + 10% dialyzed FBS) was 431, the “AUC of viability dose-response curve” value (NOMO1; RPMI 5 mM glucose + 10% FBS) was 460 and the “AUC of viability dose-response curve” value (NOMO1; [16]) was 463. The “AUC of viability dose-response curve” value (P12-Ichikawa [3]; HPLM + 10% dialyzed FBS) was 447, the “AUC of viability dose-response curve” value (P12-Ichikawa [3]; RPMI 5 mM glucose + 10% FBS) was 462 and the “AUC of viability dose-response curve” value (P12-Ichikawa [3]; [16]) was 462. The “AUC of viability dose-response curve” value (SEM cells [4]; HPLM + 10% dialyzed FBS) was 465, the “AUC of viability dose-response curve” value (SEM cells [4]; RPMI 5 mM glucose + 10% FBS) was 467 and the “AUC of viability dose-response curve” value (SEM cells [4]; [16]) was 456.

For `Nc1cccc([S+](=O)([O-])N2CCCN([S+](=O)([O-])c3ccc4c(c3)OCCO4)CC2)c1`, the “AUC of viability dose-response curve” value (NOMO1; HPLM + 10% dialyzed FBS) was 445, the “AUC of viability dose-response curve” value (NOMO1; RPMI 5 mM glucose + 10% FBS) was 464 and the “AUC of viability dose-response curve” value (NOMO1; [16]) was 447. For the same compound, the “AUC of viability dose-response curve” value (P12-Ichikawa [3]; HPLM + 10% dialyzed FBS) was 444, the “AUC of viability dose-response curve” value (P12-Ichikawa [3]; RPMI 5 mM glucose + 10% FBS) was 464 and the “AUC of viability dose-response curve” value (P12-Ichikawa [3]; [16]) was 460. The “AUC of viability dose-response curve” value (SEM cells [4]; HPLM + 10% dialyzed FBS) was 460, the “AUC of viability dose-response curve” value (SEM cells [4]; RPMI 5 mM glucose + 10% FBS) was 434 and the “AUC of viability dose-response curve” value (SEM cells [4]; [16]) was 437.

With `Cc1cc(NC(=O)Nc2ccc(N(C)C)cc2)c2cc(F)cc(F)c2n1` the “AUC of viability dose-response curve” value (NOMO1; HPLM + 10% dialyzed FBS) was 457, the “AUC of viability dose-response curve” value (NOMO1; RPMI 5 mM glucose + 10% FBS) was 466 and the “AUC of viability dose-response curve” value (NOMO1; [16]) was 440. The “AUC of viability dose-response curve” value (P12-Ichikawa [3]; HPLM + 10% dialyzed FBS) was 475, the “AUC of viability dose-response curve” value (P12-Ichikawa [3]; RPMI 5 mM glucose + 10% FBS) was 461 and the “AUC of viability dose-response curve” value (P12-Ichikawa [3]; [16]) was 454. The “AUC of viability dose-response curve” value (SEM cells [4]; HPLM + 10% dialyzed FBS) was 465, the “AUC of viability dose-response curve” value (SEM cells [4]; RPMI 5 mM glucose + 10% FBS) was 468 and the “AUC of viability dose-response curve” value (SEM cells [4]; [16]) was 448.
